Laboratory results reported in PubChem BioAssay AID248 (DTP/NCI, 2004).
Values joined by “and” are separate entries in the source; they are usually repeats but may differ in a detail not shown here. Equal values may be shown once. Inconclusive results and toxic doses are left out. Cut-off read from the data, not from the text of the source: active = T/C of 150% or more; inactive = T/C below 125%. Square brackets hold non-standard residues; d marks the D form. Peptide text beside a SMILES is read from it. * marks the point of attachment. ξ: configuration not given here. Cbz = O=C(OCc1ccccc1)*; ξS = NC(CO)C(=O)O

System: L1210 leukemia ip in BDF1 mice, survival T/C
Experiment: NCI In Vivo Anticancer Drug Screen. Data for tumor model L1210 Leukemia (intraperitoneal) in B6D2F1 (BDF1) mice
Conditions: endpoint: mean survival time, higher = longer survival
Method in brief: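 Ratio derived from survival: compound-dosed mice over vehicle-dosed mice, all bearing a transplantable tumor.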

[1] = dose: 100.0 mg/kg/injection, schedule: Q01DX009 (ip), vehicle: saline
[2] = dose: 200.0 mg/kg/injection, schedule: Q01DX009 (ip), vehicle: saline
[3] = dose: 100.0 mg/kg/injection, schedule: Q01DX009 (ip), vehicle: Klucel (hydroxypropylcellulose) (HPC)
[4] = dose: 200.0 mg/kg/injection, schedule: Q01DX009 (ip), vehicle: Klucel (hydroxypropylcellulose) (HPC)
[5] = dose: 400.0 mg/kg/injection, schedule: Q01DX009 (ip), vehicle: Klucel (hydroxypropylcellulose) (HPC)
[6] = dose: 12.5 mg/kg/injection, schedule: Q01DX009 (ip), vehicle: saline with Tween-80
[7] = dose: 25.0 mg/kg/injection, schedule: Q01DX009 (ip), vehicle: saline with Tween-80
[8] = dose: 50.0 mg/kg/injection, schedule: Q01DX009 (ip), vehicle: saline with Tween-80
[9] = dose: 400.0 mg/kg/injection, schedule: Q01DX009 (ip), vehicle: saline with Tween-80
[10] = dose: 100.0 mg/kg/injection, schedule: Q01DX001 (ip), vehicle: carboxymethylcellulose (CMC)
[11] = dose: 200.0 mg/kg/injection, schedule: Q01DX001 (ip), vehicle: carboxymethylcellulose (CMC)
[12] = dose: 400.0 mg/kg/injection, schedule: Q01DX001 (ip), vehicle: carboxymethylcellulose (CMC)
[13] = dose: 100.0 mg/kg/injection, schedule: Q04DX003 (ip), vehicle: saline with Tween-80
[14] = dose: 200.0 mg/kg/injection, schedule: Q04DX003 (ip), vehicle: saline with Tween-80
[15] = dose: 400.0 mg/kg/injection, schedule: Q04DX003 (ip), vehicle: saline with Tween-80
[16] = dose: 100.0 mg/kg/injection, schedule: Q04DX003 (ip), vehicle: saline
[17] = dose: 200.0 mg/kg/injection, schedule: Q04DX003 (ip), vehicle: saline
[18] = dose: 400.0 mg/kg/injection, schedule: Q04DX003 (ip), vehicle: saline
[19] = dose: 100.0 mg/kg/injection, schedule: Q01DX001 (ip), vehicle: saline
[20] = dose: 200.0 mg/kg/injection, schedule: Q01DX001 (ip), vehicle: saline

Measured: T/C

O=C1CCC(=O)N1SC(Cl)(Cl)Cl
inactive: dose: 7.5 mg/kg/injection, schedule: Q01DX009 (ip), vehicle: saline 101 % of control | dose: 15.0 mg/kg/injection, schedule: Q01DX009 (ip), vehicle: saline 101 % of control | dose: 30.0 mg/kg/injection, schedule: Q01DX009 (ip), vehicle: saline 106 % of control | dose: 45.0 mg/kg/injection, schedule: Q01DX009 (ip), vehicle: saline 99 % of control | dose: 70.0 mg/kg/injection, schedule: Q01DX009 (ip), vehicle: saline 92 % of control | dose: 100.0 mg/kg/injection, schedule: Q01DX001 (ip), vehicle: other 103 % of control | dose: 100.0 mg/kg/injection, schedule: Q04DX002 (ip), vehicle: saline with Tween-80 87 % of control | dose: 105.0 mg/kg/injection, schedule: Q01DX009 (ip), vehicle: saline 89 % of control | dose: 200.0 mg/kg/injection, schedule: Q01DX001 (ip), vehicle: other 95 % of control | dose: 240.0 mg/kg/injection, schedule: Q01DX009 (ip), vehicle: saline 88 % of control | dose: 300.0 mg/kg/injection, schedule: Q01DX001 (ip), vehicle: other 98 % of control | dose: 360.0 mg/kg/injection, schedule: Q01DX009 (ip), vehicle: saline 86 % of control

O=C1CCC2(CCC(=O)O2)O1
inactive: dose: 50.0 mg/kg/injection, schedule: Q01DX009 (ip), vehicle: saline 100 % of control | [1] 100 % of control | [2] 92 % of control

O=C(CCN1CC1)Nc1ccc(Cc2ccc(NC(=O)CCN3CC3)cc2)cc1
inactive: dose: 20.0 mg/kg/injection, schedule: Q04DX003 (ip), vehicle: Klucel (hydroxypropylcellulose) (HPC) 101 % of control | dose: 40.0 mg/kg/injection, schedule: Q04DX003 (ip), vehicle: Klucel (hydroxypropylcellulose) (HPC) 117 % of control | dose: 80.0 mg/kg/injection, schedule: Q04DX003 (ip), vehicle: Klucel (hydroxypropylcellulose) (HPC) 106 % of control

CCOc1cc(/C=N/NC(=O)COCC(=O)N/N=C/c2ccc(O)c(OCC)c2)ccc1O
inactive: [3] 88 % of control | [4] 92 % of control | [5] 97 % of control

O=C(Nc1ccc(Cl)cc1)O/N=C/c1ccccn1
inactive: [6] 111 % of control | [7] 97 % of control | [8] 94 % of control | dose: 100.0 mg/kg/injection, schedule: Q01DX001 (ip), vehicle: saline with Tween-80 97 % of control | dose: 200.0 mg/kg/injection, schedule: Q01DX001 (ip), vehicle: saline with Tween-80 109 % of control | dose: 400.0 mg/kg/injection, schedule: Q01DX001 (ip), vehicle: saline with Tween-80 101 % of control | [9] 88 % of control

O=C(/C(=C\c1ccc(Cl)c(Cl)c1)c1ccccc1)c1ccc(O)cc1
inactive: [10] 90 % of control | [11] 101 % of control | [12] 95 % of control

CC1COC(C(C)C)O1 (stereo unspecified)
inactive: dose: 50.0 mg/kg/injection, schedule: Q01DX009 (ip), vehicle: acetone 90 % of control | dose: 100.0 mg/kg/injection, schedule: Q01DX009 (ip), vehicle: acetone 97 % of control | dose: 100.0 mg/kg/injection, schedule: Q04DX003 (ip), vehicle: acetone 95 % of control | dose: 200.0 mg/kg/injection, schedule: Q01DX009 (ip), vehicle: acetone 95 % of control | dose: 200.0 mg/kg/injection, schedule: Q04DX003 (ip), vehicle: acetone 103 % of control | dose: 400.0 mg/kg/injection, schedule: Q04DX003 (ip), vehicle: acetone 90 % of control

NC(=S)N/N=C/c1cccn1Cc1cc2c(cc1[N+](=O)[O-])OCO2
inactive: dose: 25.0 mg/kg/injection, schedule: Q04DX002 (ip), vehicle: Klucel (hydroxypropylcellulose) (HPC) 100 % of control | dose: 50.0 mg/kg/injection, schedule: Q04DX002 (ip), vehicle: Klucel (hydroxypropylcellulose) (HPC) 96 % of control | dose: 100.0 mg/kg/injection, schedule: Q04DX002 (ip), vehicle: Klucel (hydroxypropylcellulose) (HPC) 104 % of control

CC1(C)OC2COC(c3cc(C(N)=O)n[nH]3)C2O1 (stereo unspecified)
inactive: [13] 97 % of control | [14] 100 % of control | [15] 100 % of control

COc1nc(N)nc2c1ncn2C1OC(CO)C(O)C1O (stereo unspecified)
inactive: dose: 75.0 mg/kg/injection, schedule: Q01DX001 (ip), vehicle: saline 102 % of control | dose: 150.0 mg/kg/injection, schedule: Q01DX001 (ip), vehicle: saline 93 % of control

O=C1/C(=C/c2ccccc2)Cc2ccccc21
inactive: dose: 100.0 mg/kg/injection, schedule: Q01DX009 (ip), vehicle: saline with Tween-80 95 % of control | [13] 101 % of control | dose: 200.0 mg/kg/injection, schedule: Q01DX009 (ip), vehicle: saline with Tween-80 95 % of control | [14] 95 % of control | [9] 95 % of control | [15] 109 % of control

COC(=O)C(CO)NC(=O)CNC(=O)OCc1ccccc1 (stereo not drawn) (Cbz-Gly-[ξS]-OMe)
inactive: dose: 100.0 mg/kg/injection, schedule: Q04DX003 (ip), vehicle: water 98 % of control | dose: 200.0 mg/kg/injection, schedule: Q04DX003 (ip), vehicle: water 94 % of control | dose: 400.0 mg/kg/injection, schedule: Q04DX003 (ip), vehicle: water 96 % of control

N#Cc1oc2ccccc2c1OC(=O)C(F)(F)F
inactive: [13] 100 % of control | [14] 95 % of control

CN(C)CCS(=O)(=O)CCc1ccccc1
inactive: dose: 75.0 mg/kg/injection, schedule: Q01DX001 (ip), vehicle: carboxymethylcellulose (CMC) 106 % of control | dose: 150.0 mg/kg/injection, schedule: Q01DX001 (ip), vehicle: carboxymethylcellulose (CMC) 98 % of control | dose: 300.0 mg/kg/injection, schedule: Q01DX001 (ip), vehicle: carboxymethylcellulose (CMC) 101 % of control

O=C(Oc1cccc(O)c1)c1ccccc1
inactive: [3] 100 % of control | [4] 102 % of control | [5] 94 % of control

CC(=O)OCC(OC(C)=O)C(OC(C)=O)C(OC(C)=O)C(O)C#N (stereo unspecified)
inactive: [6] 93 % of control | [7] 93 % of control | [8] 97 % of control and 100 % of control

CC(=O)NC(C)C(C)C (stereo unspecified)
inactive: [16] 94 % of control | [17] 107 % of control | [18] 104 % of control

OC(OCC(COC(O)C(Br)Br)(COC(O)C(Br)Br)COC(O)C(Br)Br)C(Br)Br (stereo unspecified)
inactive: dose: 50.0 mg/kg/injection, schedule: Q01DX001 (ip), vehicle: carboxymethylcellulose (CMC) 101 % of control | [10] 95 % of control | [11] 92 % of control | [12] 95 % of control

CNC(=O)n1ncnc1N
inactive: [16] 94 % of control | [17] 96 % of control | [18] 97 % of control

O=C(CN1CCCCC1)Nc1cccc(C(F)(F)F)c1
inactive: [3] 99 % of control | dose: 100.0 mg/kg/injection, schedule: Q04DX003 (ip), vehicle: Klucel (hydroxypropylcellulose) (HPC) 97 % of control | [4] 100 % of control | dose: 200.0 mg/kg/injection, schedule: Q04DX003 (ip), vehicle: Klucel (hydroxypropylcellulose) (HPC) 98 % of control | [5] 100 % of control | dose: 400.0 mg/kg/injection, schedule: Q04DX003 (ip), vehicle: Klucel (hydroxypropylcellulose) (HPC) 93 % of control

CC1(C#N)CC(C#N)Nc2ccccc2N1 (stereo unspecified)
inactive: [1] 104 % of control | [2] 98 % of control

O=C(O)C1OC(n2cc(I)c(=O)[nH]c2=O)CC1O (stereo unspecified)
inactive: [19] 107 % of control | [20] 103 % of control | dose: 400.0 mg/kg/injection, schedule: Q01DX001 (ip), vehicle: saline 100 % of control

Nc1ccc2c(ccc3cccc[n+]32)c1
inactive: [19] 105 % of control | [20] 108 % of control

CC(=O)NC(C)(SC(c1ccccc1)c1ccccc1)C(=O)O (stereo unspecified)
inactive: dose: 100.0 mg/kg/injection, schedule: Q01DX001 (ip), vehicle: Klucel (hydroxypropylcellulose) (HPC) 100 % of control | dose: 200.0 mg/kg/injection, schedule: Q01DX001 (ip), vehicle: Klucel (hydroxypropylcellulose) (HPC) 100 % of control | dose: 400.0 mg/kg/injection, schedule: Q01DX001 (ip), vehicle: Klucel (hydroxypropylcellulose) (HPC) 105 % of control
